{"source": "patent US20110059076A1", "about": "“HUMAN SERUM ALBUMIN LINKERS AND CONJUGATES THEREOF” (priority 2008, published 2011)", "key": {"[1]": {"tested_on": "control BT-474-M3 breast cancer cell xenografts", "assay": "BT-474-M3 shControl xenografts", "assay_type": "in vivo, nude mice", "details": "30 mg/kg B2B3-1 every 3 days or 10 mg/kg trastuzumab every week, i.p.", "procedure": "ShRNA technology is applied to knock out the activity of the tumor suppressor gene phosphatase and tensin homolog (PTEN) in BT-474-M3 breast cancer cells. Briefly, cultured BT-474-M3 cells are transfected with shPTEN or shControl RNA by retroviral transfection. Transfected cells with reduced PTEN are selected using FACS and subsequently injected subcutaneously into the right flank of nude mice to establish xenograft tumors. Cells transfected with a control vector are injected into the left flank of the same mouse. […] All injections are done i.p."}, "[2]": {"tested_on": "AKT phosphorylation in BT-474-M3 cells", "assay": "HRG-induced AKT phosphorylation ELISA in BT-474-M3", "assay_type": "cell-based, human", "details": "BT-474-M3, dose titration 24 hours, 5 nM HRG 1β EGF domain 10 minutes"}}, "data": [{"substance": "B2B3-1: bispecific scFv antibody fusion: anti-ErbB3 scFv H3 and anti-ErbB2 scFv B1D2 joined by a modified human serum albumin (HSA) linker", "values": [{"measurement": "size of tumors formed by control BT-474-M3 cells", "setting": "[1]", "result": "promoted a reduction"}, {"measurement": "inhibition of HRG induced AKT phosphorylation", "setting": "[2]", "result": "inhibits"}]}]}
